Results as given in PMC5786021, “A dynamic allosteric pathway underlies Rad50 ABC ATPase function in DNA repair” (Scientific Reports, 2018).
Read-outs that look alike come from different tables or passages of the source. Each block holds one compound with its values, some of them ahead of it.

Legend:
[1] = target: T1, Mre11^HLH-Rad50^NBD (Pyrococcus furiosus, UniProt P58301, DEL196-708); experiment: fluorescence polarization competition with BODIPY FL ATP; format: binding
T1 construct: Mre11 helix-loop-helix aa344-426; His and NusA-His tags removed with TEV; E. coli; monomeric without nucleotide; with DNA double-strand break repair protein Mre11
T1 sequence (P58301 709-882, stated change not applied, other chains not shown): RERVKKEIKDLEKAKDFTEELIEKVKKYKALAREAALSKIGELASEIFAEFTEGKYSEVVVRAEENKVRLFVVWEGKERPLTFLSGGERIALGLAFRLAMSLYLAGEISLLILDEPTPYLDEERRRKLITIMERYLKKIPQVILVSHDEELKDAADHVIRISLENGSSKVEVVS
T1 sequence (P58301 1-195, stated change not applied, other chains not shown): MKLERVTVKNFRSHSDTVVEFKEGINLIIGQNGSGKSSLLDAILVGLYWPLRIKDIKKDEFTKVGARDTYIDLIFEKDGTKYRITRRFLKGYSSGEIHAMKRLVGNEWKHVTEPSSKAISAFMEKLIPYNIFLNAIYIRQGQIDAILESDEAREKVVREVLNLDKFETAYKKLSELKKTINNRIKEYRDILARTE

[2] = target: T2, Mre11^HLH-Rad50^NBD (Pyrococcus furiosus, UniProt P58301, DEL196-708/R805E); experiment: as above; format: binding
T2 construct: Mre11 helix-loop-helix aa344-426; His and NusA-His tags removed with TEV; E. coli; monomeric without nucleotide; with DNA double-strand break repair protein Mre11
T2 sequence (P58301 709-882 R805E, other chains not shown): as the sequence (P58301 709-882, stated change not applied, other chains not shown) above, with R97E counted along it
T2 sequence (P58301 1-195, stated change not applied, other chains not shown): as the sequence (P58301 1-195, stated change not applied, other chains not shown) above

[3] = target: T3, Mre11_2-Rad50^NBD2 (Pyrococcus furiosus, UniProt P58301, DEL196-708); experiment: 2-aminopurine DNA exonuclease fluorescence; format: biochemical; conditions: 1 mM AMP-PNP, 1 mM MnCl2, 5 mM MgCl2, 50 mM Tris pH 7.5, 60 °C; allosteric via Rad50
T3 construct: about 160 kDa; E. coli; with DNA double-strand break repair protein Mre11
T3 sequence (P58301 709-882, stated change not applied): as the sequence (P58301 709-882, stated change not applied, other chains not shown) above
T3 sequence (P58301 1-195, stated change not applied): as the sequence (P58301 1-195, stated change not applied, other chains not shown) above

Ki ([1]; read-out: KI,ADP): 6.5 µM
SMILES: Nc1ncnc2c1ncn2[C@@H]1O[C@H](COP(=O)(O)OP(=O)(O)O)[C@@H](O)[C@H]1O [ADP]

Ki [1]: 9.8 µM
Ki [2]: 3 µM
SMILES: Nc1ncnc2c1ncn2[C@@H]1O[C@H](COP(=O)(O)OP(=O)(O)OP(=O)(O)O)[C@@H](O)[C@H]1O [ATP]

SMILES: Nc1ncnc2c1ncn2[C@@H]1O[C@H](COP(=O)(O)OP(=O)(O)NP(=O)(O)O)[C@@H](O)[C@H]1O [AMP-PNP]
reduction in Mre11 exonuclease activity [3]: non-hydrolyzable ATP analog AMP-PNP resulted in a dramatic reduction in exonuclease activity
